Results taken from patent US20210187077A1, “GLP-1 Agonist Conjugates for Sustained Glycemic Control” (IDAHO STATE UNIVERSITY, priority 2019, published 2021).

Assay: hydroxyapatite (HA) binding in vitro study (bone mineral affinity)
Procedure: To evaluate the bone mineral affinity of the GLP-1 conjugate described in Example 1, hydroxyapatite (HA) binding in vitro studies were conducted. Briefly, 10 μg of GLP-1 or equivalent amount of GLP-1 conjugate was mixed with 5 mg of HA powder in 500 μL of the binding buffer with various concentrations (double-distilled water (D.D.), 10 mM PBS [pH 7.4], 50 mM PBS [pH 7.4], acetate buffer [pH 4]) . Similarly, tubes containing an equivalent amount of GLP-1 or GLP-1 conjugate in corresponding buffers without HA were used as a negative control. Mixtures were shaken gently at room temperature for 1 hour and then were centrifuged at 10,000 g for 5 minutes. The supernatant was separated and assayed for unbound drug, using a fluorescence spectrometer (λEx 215 nm, λEm 305 nm). The percentage of HA binding was calculated as:
(Intensity of control−the intensity of supernatants)/Intensity of control×100%
Each experiment was measured in triplicate.

Substance: H-HAE GTF TSD VSS YLE GQA A-K(Mal-PEGn-BP)-E FIA WLV KGR —NH2 [GLP-1 conjugate]
- effect of pH and phosphate ion concentration on HA binding capacity (acidic pH (Acetate buffer pH 4 vs PBS pH 7.4) and lower buffer concentration (10 mM vs 50 mM)): higher binding
- binding capacity to HA compared with plain GLP-1 peptide (various medium (D.D. water, 10 mM PBS pH 7.4, 50 mM PBS pH 7.4, acetate buffer pH 4), 5 mg HA, 1 hour, room temperature, p<0.01): significantly different binding capacity to HA
